Measured values from article PMC4039632 (Journal of molecular biology, 2013).

Target: T1, EngD (Endoglucanase D) (Clostridium cellulovorans, UniProt P28623)
T1 sequence (P28623 32-515): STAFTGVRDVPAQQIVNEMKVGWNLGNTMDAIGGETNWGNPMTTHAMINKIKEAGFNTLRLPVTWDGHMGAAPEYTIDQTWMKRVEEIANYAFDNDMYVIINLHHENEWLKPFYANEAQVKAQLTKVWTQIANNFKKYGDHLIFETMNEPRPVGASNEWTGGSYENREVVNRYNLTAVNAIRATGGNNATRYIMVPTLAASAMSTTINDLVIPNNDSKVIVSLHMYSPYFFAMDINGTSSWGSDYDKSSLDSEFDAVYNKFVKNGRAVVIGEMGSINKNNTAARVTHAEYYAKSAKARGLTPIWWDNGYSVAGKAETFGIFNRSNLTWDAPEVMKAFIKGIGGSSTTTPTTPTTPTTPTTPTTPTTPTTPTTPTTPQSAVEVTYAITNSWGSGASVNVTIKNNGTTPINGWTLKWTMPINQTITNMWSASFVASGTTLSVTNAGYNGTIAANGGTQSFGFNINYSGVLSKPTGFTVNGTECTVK
Assay: HPLC of hydrolysis products
Type: biochemical
Conditions: 2 mM substrate, 100 mM sodium citrate pH 5.0, 37 °C, 30 min

With OC[C@H]1O[C@@H](O[C@H]2[C@H](O)[C@@H](O)[C@H](O[C@H]3[C@H](O)[C@@H](O)[C@H](O[C@H]4[C@H](O)[C@@H](O)[C@H](O[C@H]5[C@H](O)[C@@H](O)[C@H](O[C@H]6[C@H](O)[C@@H](O)C(O)O[C@@H]6CO)O[C@@H]5CO)O[C@@H]4CO)O[C@@H]3CO)O[C@@H]2CO)[C@H](O)[C@@H](O)[C@@H]1O (stereo partly shown) [G6, cellohexaose] the “HPLC of hydrolysis products” value was “Wild type EngD produced an equal amount cellotriose and cellobiose in the degradation of cellohexaose”.
